In ChEMBL document CHEMBL6153099, “Fatuamide A, a Hybrid PKS/NRPS Metallophore from a Leptolyngbya sp. Marine Cyanobacterium Collected in American Samoa” (J Nat Prod, 2025):
Activity calls are given as the source filed them. No cut-off for these calls is given here.

Columns and labels:
RAW264.7 = experiment: Antiinflammatory activity in LPS-induced mouse RAW264.7 cells assessed as reduction in NO production at 10 to 30 microg/ml preincubated for 24 hrs by Griess reagent based assay; format: functional, cell-based; settings: dose 10-30 µg/ml
NCI-H460 = experiment: Cytotoxicity against human NCI-H460 cells at 2 to 60000 nM incubated for 48 hrs by MTT assay; format: functional, cell-based; settings: dose 2-60000 nM

C[C@H](C[C@@H](C)CCC(=O)N[C@@H](Cc1ccccc1)[C@H](O)C[C@H](O)CC(=O)N[C@@H](Cc1ccccc1)[C@H](O)CC(=O)NCC(=O)O)C[C@@H]1CSC(c2ccccc2O)=N1
Activity (RAW264.7): inactive | Activity (NCI-H460): Active
